T/C data for 23 compounds are collected here from PubChem BioAssay AID330 (DTP/NCI, 2004).

The subject of the experiment is P388 leukemia ip, CD2F1 mice, survival T/C. The experiment in a line: NCI In Vivo Anticancer Drug Screen. Data for tumor model P388 Leukemia (intraperitoneal) in CD2F1 (CDF1) mice. To be noted: endpoint: median survival time, higher = longer survival. In a few lines:
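Mice carrying the transplanted tumor received test compound or vehicle. Survival was recorded in each group, and the value is the treated-group measurement divided by that of the vehicle-treated control group.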

Setting [1] is: dose: 50.0 mg/kg/injection, schedule: Q01DX009 (ip), vehicle: saline with Tween-80.
Where [2] appears, read: dose: 100.0 mg/kg/injection, schedule: Q01DX009 (ip), vehicle: saline with Tween-80.
Setting [3] is: dose: 100.0 mg/kg/injection, schedule: Q04DX003 (ip), vehicle: saline.
[4] abbreviates: dose: 50.0 mg/kg/injection, schedule: Q01DX005 (ip), vehicle: Klucel (hydroxypropylcellulose) (HPC).
Where [5] appears, read: dose: 100.0 mg/kg/injection, schedule: Q01DX005 (ip), vehicle: Klucel (hydroxypropylcellulose) (HPC).
Where [6] appears, read: dose: 60.0 mg/kg/injection, schedule: Q01DX005 (ip), vehicle: saline with Tween-80.
Setting [7] is: dose: 120.0 mg/kg/injection, schedule: Q01DX005 (ip), vehicle: saline with Tween-80.
Where [8] appears, read: dose: 240.0 mg/kg/injection, schedule: Q01DX005 (ip), vehicle: saline with Tween-80.
Setting [9] is: dose: 100.0 mg/kg/injection, schedule: Q01DX001 (ip), vehicle: Klucel (hydroxypropylcellulose) (HPC).
Where [10] appears, read: dose: 200.0 mg/kg/injection, schedule: Q01DX001 (ip), vehicle: Klucel (hydroxypropylcellulose) (HPC).
[11] abbreviates: dose: 50.0 mg/kg/injection, schedule: Q01DX009 (ip), vehicle: saline.
Setting [12] is: dose: 100.0 mg/kg/injection, schedule: Q01DX009 (ip), vehicle: saline.
Where [13] appears, read: dose: 200.0 mg/kg/injection, schedule: Q01DX009 (ip), vehicle: saline.
Setting [14] is: dose: 50.0 mg/kg/injection, schedule: Q01DX009 (ip), vehicle: Klucel (hydroxypropylcellulose) (HPC).
Setting [15] is: dose: 100.0 mg/kg/injection, schedule: Q01DX009 (ip), vehicle: Klucel (hydroxypropylcellulose) (HPC).
Where [16] appears, read: dose: 200.0 mg/kg/injection, schedule: Q01DX009 (ip), vehicle: Klucel (hydroxypropylcellulose) (HPC).

Molecules are shown by their SMILES. Where “and” joins values, the source holds several entries; their conditions need not be identical. Equal entries are not always repeated. Toxic doses and inconclusive results are not listed.

As for `COc1cccc2c1C(=O)c1c(O)c3c(c(O)c1C2=O)CC(O)(c1csc(N2CCN(C)CC2)n1)CC3O` (stereo unspecified), the T/C is 87 % of control (dose: 1.56 mg/kg/injection, schedule: Q01DX009 (ip), vehicle: water); 93 % of control (dose: 3.13 mg/kg/injection, schedule: Q01DX009 (ip), vehicle: water); 110 % of control (dose: 6.25 mg/kg/injection, schedule: Q01DX009 (ip), vehicle: water); 110 % of control (dose: 12.5 mg/kg/injection, schedule: Q01DX009 (ip), vehicle: water); 105 % of control and 116 % of control (dose: 25.0 mg/kg/injection, schedule: Q01DX009 (ip), vehicle: water); 102 % of control (dose: 50.0 mg/kg/injection, schedule: Q01DX009 (ip), vehicle: water). Moreover, under “dose: 100.0 mg/kg/injection, schedule: Q01DX009 (ip), vehicle: water”, the T/C was 107 % of control.
For `NC(N)=NC(N)=Nc1ccc(Cl)c(Cl)c1`, the T/C is 103 % of control (dose: 12.5 mg/kg/injection, schedule: Q01DX009 (ip), vehicle: saline with Tween-80); 103 % of control and 106 % of control (dose: 25.0 mg/kg/injection, schedule: Q01DX009 (ip), vehicle: saline with Tween-80); 112 % of control and 93 % of control under setting [1]; 88 % of control under setting [2]; 109 % of control under setting [3].
`Fc1ccc(N2C(c3ccccc3)=N[C@@H](N3CCOCC3)[C@@H]2N2CCOCC2)cc1`: the T/C by setting is: under setting [4], 102 % of control; under setting [5], 100 % of control; (dose: 200.0 mg/kg/injection, schedule: Q01DX005 (ip), vehicle: Klucel (hydroxypropylcellulose) (HPC)) 93 % of control.
Consider `COc1ccc(-c2nc(N)nc(-c3nc(N)nc(-c4ccc(OC)cc4)c3-c3ccc(OC)cc3)c2-c2ccc(OC)cc2)cc1`, for which the T/C was 96 % of control under setting [6], 96 % of control under setting [7] and 99 % of control under setting [8].
Take `CCCCCCCCCC(C)CC(=O)NCCCN(C)CCCCN(C)C` (stereo unspecified) (tested in a mixture with another compound): the T/C (dose: 0.78 mg/kg/injection, schedule: Q01DX009 (ip), vehicle: saline with Tween-80) is 91 % of control; the T/C (dose: 1.56 mg/kg/injection, schedule: Q01DX009 (ip), vehicle: saline with Tween-80) is 94 % of control; the T/C (dose: 3.13 mg/kg/injection, schedule: Q01DX009 (ip), vehicle: saline with Tween-80) is 97 % of control; the T/C (dose: 6.25 mg/kg/injection, schedule: Q01DX009 (ip), vehicle: saline with Tween-80) was 100 % of control.
For `C/C=C1/CN(C)C2Cc3c([nH]c4ccccc34)C(c3cc4[nH]c5c(c4cc3OC)CCN3CC4CC(CC)C3C5(COC(=O)c3ccc(OC)c(OC)c3)C4)CC1C2C(=O)OC` (stereo unspecified), the T/C runs as follows: (dose: 6.25 mg/kg/injection, schedule: Q01DX001 (ip), vehicle: Klucel (hydroxypropylcellulose) (HPC)) 107 % of control; (dose: 12.5 mg/kg/injection, schedule: Q01DX001 (ip), vehicle: Klucel (hydroxypropylcellulose) (HPC)) 106 % of control; (dose: 25.0 mg/kg/injection, schedule: Q01DX001 (ip), vehicle: Klucel (hydroxypropylcellulose) (HPC)) 106 % of control and 113 % of control; (dose: 50.0 mg/kg/injection, schedule: Q01DX001 (ip), vehicle: Klucel (hydroxypropylcellulose) (HPC)) 104 % of control; under setting [9], 100 % of control; under setting [10], 100 % of control.
On to `O=C(O)CCc1ccc(O)c(O)c1`, for which the T/C reads like this: under setting [11], 102 % of control and 111 % of control; under setting [12], 100 % of control and 111 % of control; under setting [13], 108 % of control and 110 % of control; (dose: 400.0 mg/kg/injection, schedule: Q01DX009 (ip), vehicle: saline) 111 % of control and 115 % of control.
On to `Nc1ccn([C@@H](C=O)O[C@@H](C=O)CO)c(=O)n1`, for which the T/C runs as follows: (dose: 44.0 mg/kg/injection, schedule: Q04DX003 (ip), vehicle: saline) 112 % of control; (dose: 66.0 mg/kg/injection, schedule: Q04DX003 (ip), vehicle: saline) 120 % of control; under setting [12], 150 % of control; under setting [13], 180 % of control.
For the compound `CCOC(=O)NC`, the T/C by setting is: under setting [3], 104 % of control; (dose: 200.0 mg/kg/injection, schedule: Q04DX003 (ip), vehicle: saline) 100 % of control; (dose: 400.0 mg/kg/injection, schedule: Q04DX003 (ip), vehicle: saline) 104 % of control.
As for `O=C1CCCC/C1=C/c1ccccc1`, the T/C was 98 % of control (dose: 25.0 mg/kg/injection, schedule: Q01DX005 (ip), vehicle: distilled water + Tween-80 + alcohol); 98 % of control (dose: 50.0 mg/kg/injection, schedule: Q01DX005 (ip), vehicle: distilled water + Tween-80 + alcohol); 100 % of control (dose: 100.0 mg/kg/injection, schedule: Q01DX005 (ip), vehicle: distilled water + Tween-80 + alcohol); 98 % of control (dose: 200.0 mg/kg/injection, schedule: Q01DX005 (ip), vehicle: distilled water + Tween-80 + alcohol).
Regarding `O=C1[O][Sn]2([Cl])[NH]C1C[S]2` (stereo unspecified), the T/C under setting [4] was 100 % of control and the T/C under setting [5] was 102 % of control.
Regarding `CCN(CC)Cc1cc(N=Nc2ccc(-c3ccc(N)c(OC)c3)cc2OC)c2ccccc2c1O`, the T/C runs as follows: under setting [14], 92 % of control; under setting [15], 99 % of control; under setting [16], 93 % of control.
For the compound `O=C(CC(=O)C(F)(F)F)c1cccs1.O=C(CC(=O)C(F)(F)F)c1cccs1.O=C(CC(=O)C(F)(F)F)c1cccs1.[Gd]`, the T/C was 96 % of control under setting [11], 96 % of control under setting [12] and 99 % of control under setting [13].
Regarding `O=C(O)C(=O)O.O=C(O)C(=O)O.O=C(O)C(=O)O.[Ru]`, the T/C (dose: 12.5 mg/kg/injection, schedule: Q04DX003 (ip), vehicle: water) is 110 % of control and 87 % of control.
With `OC1CNCc2cc3c(cc21)OCO3` (stereo unspecified), the T/C was 110 % of control (dose: 60.0 mg/kg/injection, schedule: Q01DX005 (ip), vehicle: saline); 107 % of control (dose: 120.0 mg/kg/injection, schedule: Q01DX005 (ip), vehicle: saline); 100 % of control (dose: 240.0 mg/kg/injection, schedule: Q01DX005 (ip), vehicle: saline).
As for `Nc1ccc2ccc(N)nc2c1`, the T/C (dose: 50.0 mg/kg/injection, schedule: Q01DX009 (ip), vehicle: acid diluted with saline) is 105 % of control.
Regarding `CC(=O)Nc1ccc(OCC(O)CNC(C)C)c(C(C)=O)c1` (stereo unspecified), the T/C reads like this: under setting [11], 101 % of control; under setting [12], 92 % of control; under setting [13], 97 % of control.
Regarding `O=CNNc1cccc(Cl)n1`, the T/C under setting [9] was 97 % of control; the T/C under setting [10] was 97 % of control; the T/C (dose: 400.0 mg/kg/injection, schedule: Q01DX001 (ip), vehicle: Klucel (hydroxypropylcellulose) (HPC)) is 98 % of control.
As to `CC(C)n1c(=O)nc(-c2ccccc2)c2cc3c(cc21)OCO3`, the T/C is 106 % of control under setting [14], 108 % of control under setting [15] and 91 % of control under setting [16].
On to `COc1ccc(/C(CC2(O)C(=O)Nc3ccccc32)=N\NC(=O)NN)cc1O` (stereo unspecified), for which the T/C (dose: 50.0 mg/kg/injection, schedule: Q01DX005 (ip), vehicle: saline with Tween-80) is 101 % of control; the T/C (dose: 100.0 mg/kg/injection, schedule: Q01DX005 (ip), vehicle: saline with Tween-80) is 107 % of control; the T/C (dose: 200.0 mg/kg/injection, schedule: Q01DX005 (ip), vehicle: saline with Tween-80) is 100 % of control.
Regarding `CC(=O)NC1C(OC(C)=O)C(OC(C)=O)C(COC(C)=O)OC1[N+](=O)[O-]` (stereo unspecified), the T/C reads like this: under setting [6], 101 % of control; under setting [7], 94 % of control; under setting [8], 99 % of control.
On the same counts, the results for `Nc1ncnc(N)c1NC(=O)c1cc(Cl)c(OCc2ccccc2)c(Cl)c1` are 101 % of control, 95 % of control and 94 % of control.
Regarding `CC(C)C(=NC1CCCCC1)NC(C)(C)C`, the T/C under setting [1] was 93 % of control and the T/C under setting [2] is 99 % of control.
